The subject of data set [1] is MelanoDerm™ tissues (MEL-300-B). Nature of the data set: MelanoDerm quantification of melanin content. To be noted: 14 days; for Melanin content versus Kojic acid at 2%: 100 μM, Student t test. In kind it is cell-based, human. On the procedure:
(§1) The MelanoDerm™ cultures from MatTek Corporation (Ashland, Massachusetts, USA) are a pigmented 3D-Living Skin Equivalent model. MEL-300 tissues are obtained by seeding keratinocytes with melanocytes. MEL-300-B cultures contain melanocytes derived from a donor tissue and are used for the evaluation of skin lightening potential. MEL-300-B were prepared in a long life maintenance medium (EPI-100-LLMM available from the MatTek Corporation) and cultured for a total of 14 days. A total of four tissue replicates (n=4) was used per group.
(§2) Untreated tissue was used as negative control. Maintenance medium was refreshed every 2 days.
(§3) Urolithin A was applied to the samples by addition to the maintenance medium at a final concentration of 50 and 100 µM, prepared from a stock solution at 50 mM in DMSO. A vehicle control was prepared using DMSO at 0.2% in maintenance medium. Maintenance medium added in Urolithin A or DMSO was refreshed every 2 days. Kojic acid was used as a positive control at 2% in 50:50 butylene glycol: water and applied topically (i.e. on the stratum corneum, the outermost layer of the epidermis, of the MelanoDerm™ sample). Kojic acid is a well-known inhibitor of tyrosinase, a key enzyme that is responsible for melanogenesis in melanoma and melanocytes, and is used to treat hyperpigmentation, melasma, and wrinkle in cosmetics products. Every 2 days, tissues were rinsed with sterile PBS to remove Kojic acid prior to adding a fresh preparation of kojic acid at 2% in 50:50 butylene glycol: water. Maintenance medium was changed at the same time. • a. At day 14, all tissues were photographed by top view for macroscopic analysis of pigmentation using a Nikon Eclipse Ti microscope. […] It is also visible that tissues treated with Urolithin A at 50 and 100 μM are as light as the tissues treated with the positive control Kojic acid applied topically at 2%. • b. The lightness of the samples was assessed by measuring the L value using the Konica Minolta Color Spectrophotometer (CM-700d) at day 0, 4, 7, 11 and 14. The L value tells how light or dark the color is, with black corresponding to L=0 and white to L=100. FIG. 3 represents the L values measured in the difference samples. […] At the end of the treatment, the L-values of tissues treated with Urolithin A and Kojic acid are equivalent, confirming what is visible in FIG. 2. […] Three tissues per group were used for the quantification of melanin. Tissues were first incubated in PBS to remove any phenol red remaining from the maintenance medium. Tissues were placed in a 1.7 ml microfuge tube with 500 μl of Solvable™ (Tissue and Gel Solubilizer 0.5 M-Packard BioScience Co. Catalogue No. 6NE9100) and incubated at 95° C. overnight along with melanin standards. Melanin standards were prepared by dissolving melanin (Sigma catalog number M8631) in Solvable™ at 1 mg/ml to make stock solution.
Following overnight incubation, samples were centrifuged at 13000 rpm for 5 minutes to pellet any insoluble material. 200 μl of each sample were transferred to a 96-well plate and read at 490 nm. FIG. 4 represents the results for the melanin content expressed in μg. Statistical significance was performed using a one-way ANOVA, followed by a Dunnett post-hoc test for multiple comparison of each group against the negative control.

Data set [2] has as its system EpiDerm™ tissues (EPI-200, normal human-derived epidermal keratinocytes). Nature of the data set: EpiDerm skin cell viability (MTT) assay. In kind it is cell-based. The conditions noted are these: 96 hours; for Relative cell viability (% of negative control): basolateral, 90% = irritant threshold. On the procedure:
Pre-screen treatment conditions: A good skin lightener should inhibit melanin synthesis but not cause cytotoxicity to the tissue. The impact of Urolithin A on skin cells viability was performed with the EpiDerm tissue (EPI-200). The reconstructed human epidermal model EpiDerm™ (EPI-200, MatTek, Ashland, USA) consists of normal human-derived epidermal keratinocytes, which have been cultured to form a multilayered highly differentiated model of the human epidermis.
Tissues were grown in maintenance medium (EPI-100-LLMM available from the MatTek Corporation). Treatment was done basolaterally, i.e. with the test compounds dissolved in the maintenance medium, for a total duration of 96 hours. Two EpiDerm™ tissues (n=2) were used per condition, which were 1) water, 2) DMSO 0.5%, 3) Urolithin A 25 μM, 4) Urolithin A 50 μM and 5) Urolithin A 100 μM. Maintenance medium added or not in Urolithin A or DMSO was refreshed at 48 hours.
Cell viability is measured by dehydrogenase conversion of MTT [(3-4,5-dimethylthiazole-2-yl) 2,5-diphenyltetrazoliumbromide], present in cell mitochondria, into a blue formazan salt that is quantitatively measured after extraction from tissues. The MTT assay was performed by transferring the tissues to 24-well plates containing MTT medium (1 mg/ml). After a 3 hr MTT incubation, the blue formazan salt formed by cellular mitochondria was extracted with 2.0 ml/tissue of isopropanol (extractant solution, part #MTT-100-EXT) and the optical density of the extracted formazan was determined using a spectrophotometer at 570 nm. Relative cell viability was calculated for each tissue as % of the mean of the negative control tissues.

A further data set deals with rodents. The conditions noted are these: cited from earlier work.
In data set [3] the test system is MelanoDerm™ tissues (MEL-300-B). In words: MelanoDerm lightness, L value by color spectrophotometer. It is filed as cell-based, human. To be noted: for L value versus negative control group: from day 4 until day 14. On the procedure:
as §1, §2, §3

Data set [4] shares this test system. Nature of the data set: MelanoDerm macroscopic analysis of pigmentation (top view). It is filed as cell-based, human. To be noted: day 14. As for the experimental part: as §1, §2
as §3, with “Melanin standards were prepared by dissolving melanin (Sigma catalog number M8631) in Solvable™ at 1 mg/ml to make stock solution.” left out

Data set [5] in a line: Particle size distribution after micronisation (Malvern Mastersizer 2000). It is filed as physicochemical. The conditions noted are these: micronized, spiral jet mill. The source says:
Urolithin A was micronized using an MC50 Spiral 20 Jetmill (Valortecs SAS, Blodelsheim, France), using filtered nitrogen, with a feed rate of 240 g/hr, a Venturi pressure of 12 bar, and a mill pressure of 12 bar. Urolithin A was micronized to give urolithin A having a particle size distribution of D90=9 μm to 15 μm and D50=2 to 9 μm. The actual particle size distribution was D90=11.5 μm, D50=3.9 μm, D10=0.7 μm, measured using a Malvern Mastersizer 2000.

Data set [6] can be described thus: Solubility (water; topical cream). The conditions noted are these: topical cream including lipophilic excipients, e.g. an oil and/or a medium chain triglyceride. In kind it is physicochemical.

As for `O=c1cc(CO)occ1O` [Kojic acid, reference compound], in data set [1] (2% in 50:50 butylene glycol:water, applied topically), the “Decrease of melanin content compared to the negative control” value stood at 62%.

Regarding `O=c1oc2cc(O)ccc2c2ccc(O)cc12` [Urolithin A], the “Relative cell viability (% of negative control)” value in data set [2] (Urolithin A 25 μM), in data set [2] (Urolithin A 50 μM) and in data set [2] (Urolithin A 100 μM) was “higher than 90%” in each case. Also, the “Effect on skin cell viability / cytotoxicity” value in data set [2] (at the tested concentrations (25, 50, 100 μM)) is on record as “does not impair skin cell viability”. Also, the Mitophagy entry with rodents (in vivo) was “induces mitophagy”. In addition, the Lifespan result with rodents (rodents) was “increases lifespan”. The “Speed of tissue-lightening effect versus Kojic acid” value in data set [3] (50 μM) was “faster tissue-lightening effects”. Besides, the “L value versus negative control group” value in data set [3] (50 μM) and in data set [3] (100 μM) was “significantly higher” throughout. Moreover, the “Speed of tissue-/skin-lightening effect versus Kojic acid” value is “faster tissue-lightening effects” in data set [3] (100 μM) and “faster skin-lightening effects” in data set [3] (100 μM, listed as urolithin A). Further, the “L value versus tissues treated with Kojic acid” value is reported as “higher L value” in data set [3] (Urolithin A 50 or 100 μM, day 4 and 7); “equivalent” in data set [3] (end of the treatment (day 14)). The “Macroscopic pigmentation versus negative control and DMSO 0.2% group” value in data set [4] (50 μM in maintenance medium) and in data set [4] (100 μM in maintenance medium) was “consistently lighter” in each case. In addition, the “Macroscopic pigmentation versus positive control Kojic acid 2% topical” value in data set [4] (50 μM in maintenance medium) and in data set [4] (100 μM in maintenance medium) was “as light as” throughout. Besides, the “Particle size D10” value in data set [5] was 0.7 μm. Besides, the “Particle size D50” value in data set [5] amounted to 3.9 μm. Further, the “Particle size D90” value in data set [5] is 11.5 μm. Further, the “Solubility in topical cream composition” value in data set [6] is on record as “especially soluble”. Further, the “Decrease of melanin content compared to the negative control” value was found to be 65% in data set [1] (50 μM in maintenance medium) and 67% in data set [1] (100 μM in maintenance medium). The “Melanin content versus Kojic acid at 2%” value in data set [1] is on record as “significantly lower”; in data set [1] (listed as urolithin A), “greater decrease in melanin content”.
